Values after ≈ are worked out from the molar mass of the structure shown.
Columns and labels:
MDA-MB-231 = experiment: MTT cell proliferation assay, MDA-MB-231; type: cell-based, human; conditions: for Percentage Inhibition of cell proliferation MDA-MB-231 / inhibition at 10 µg/mL: 10 μg/ml; for inhibition at 10 µg/mL / IC50: Homo sapiens, MDA-MB-231; for inhibition at 10 µg/mL: read-out: Percentage Inhibition of cell proliferation MDA-MB-231
Procedure: (§1) MTT [3-(4,5-dimethylthiazol-2-yl)-2,5-diphenyltetrazolium bromide] incorporation based cell proliferation assay was performed as described previously (Reference). The cytotoxic efficacy of some analogs was evaluated in different cell lines by MTT cell proliferation assay kit (Roche Applied Sciences, Germany). The assay was carried out according to the instruction provided by the vendor. Briefly, in brief, equal numbers of cells was plated in 96-well flat-bottomed plates in 100 μl of medium and were exposed to different analogs selected from 1 to 63 at various concentrations up to 10 μg/ml for a period of three days. Vehicle control culture wells received only a maximum of 0.5% DMSO. Thereafter, 0.5 mg/ml of MTT reagent was added to each well and the microplate was incubated further for 4 h at 37° C. in presence of 5% CO2. Finally, the cells were solubilized by adding solubilizing solution and allowed to incubate at 37° C. overnight. After complete solubilization of the formazan crystals the absorbance was read at 540 nm in a microplate reader (BioRad, USA). The results (mean OD±SD) obtained from quadruplicate wells were used in calculation to determine the inhibition of cell proliferation (50% of inhibitory concentration, IC50) of the test compounds.
(§2) The cytotoxic properties of some analogs were evaluated by MTT incorporation assay. The methodology of the assay procedure was the same as mentioned in example 41.

MCF-7 = experiment: MTT cell proliferation assay, MCF-7; type: cell-based, human; conditions: for Percentage Inhibition of cell proliferation MCF-7 / inhibition at 10 µg/mL: 10 μg/ml; for inhibition at 10 µg/mL / IC50: Homo sapiens, MCF7; for inhibition at 10 µg/mL: read-out: Percentage Inhibition of cell proliferation MCF-7
Procedure: as §1, §2

potato 5-lipoxygenase = experiment: 5-Lipoxygenase enzyme inhibitory activity; type: biochemical
Procedure: 5-Lipoxygenase enzyme inhibitory activity was measured using the method of Schewe et al. (Adv Enzymol, Vol 58, 191-272, 1986), modified by Reddanna et. al., (Methods of Enzymology, Vol 187, 268-277, 1990). The assay mixture contained 80 μM linoleic acid and sufficient amount of potato 5-lipoxygenase in 50 mM phosphate buffer (pH 6.3). The reaction was initiated by the addition of enzyme buffer mix to linoleic acid and the enzyme activity was monitored as the increase in absorbance at 234 nm. The reaction was monitored for 120 sec and the inhibitory potential of the test substances (29, 31, 33, 34, 35, 36, 39, 40, 43, 44, 46, 47, 48, 49, 50, 54, 57, 59, 62 & 63) was measured by incubating various concentrations of test substances two minutes before the addition of linoleic acid. All assays were performed three times. Percentage inhibition was calculated by comparing the slope of the curve obtained for test substances with that of the control.

Structure (SMILES)	inhibition at 10 µg/mL (MDA-MB-231; Table 4) [%]	inhibition at 10 µg/mL (MCF-7; Table 4) [%]	% inhibition at 10 μg/ml (potato 5-lipoxygenase) [%]	% inhibition at 25 μg/ml (potato 5-lipoxygenase) [%]	other results
CC1CCC2(C)CCC3(C)C(=CC(=O)C4C5(C)CCC(OC(=O)CCC(=O)O)C(C)(C(=O)O)C5CCC43C)C2C1C (stereo not drawn) [Analog 4]					Percentage Inhibition of cell proliferation MDA-MB-231 (MDA-MB-231; Table 4): 40.7% at 10 μg/ml; Percentage Inhibition of cell proliferation MCF-7 (MCF-7; Table 4): 26.6% at 10 μg/ml
COC(=O)[C@]1(C)C2CC[C@]3(C)C(C(=O)C=C4C5[C@@H](C)[C@H](C)CC[C@]5(C)CC[C@]43C)[C@@]2(C)CC[C@H]1S (stereo partly drawn) [Analog 15]	37.5	21.6			
CC(=O)OC1CC[C@@]2(C)C(CC[C@]3(C)C2C(=O)C=C2C4[C@@H](C)[C@H](C)CC[C@]4(C)CC[C@]23C)[C@@]1(C)C(=O)OCCN(C)C (stereo partly drawn) [Analog 18]					Percentage Inhibition of cell proliferation MCF-7 (MCF-7; Table 4): 5.97 at 10 μg/ml %
CCCCNC(=O)[C@]1(C)C2CC[C@]3(C)C(C(=O)C=C4C5[C@@H](C)[C@H](C)CC[C@]5(C)CC[C@]43C)[C@@]2(C)CC[C@H]1OC(C)=O (stereo partly drawn) [Analog 29]			33.29		Inhibition of cell proliferation MDA-MB-231, % at 10 ug/ml (MDA-MB-231; Table 2, 10 ug/ml): 36% at 10; Percentage Inhibition of cell proliferation MDA-MB-231 (MDA-MB-231; Table 4): 36% at 10 μg/ml; Inhibition of cell proliferation MCF-7, % at 10 ug/ml (MCF-7; Table 2, 10 ug/ml): 38.3% at; Percentage Inhibition of cell proliferation MCF-7 (MCF-7; Table 4): 38.3 at 10 μg/ml %
CC(=O)O[C@@H]1CC[C@@]2(C)C(CC[C@]3(C)C2C(=O)C=C2C4[C@@H](C)[C@H](C)CC[C@]4(C)CC[C@]23C)[C@@]1(C)C(=O)N1CCOCC1 (stereo partly drawn) [Analog 37]	23				
C[C@@H]1CC[C@]2(C)CC[C@]3(C)C(=CC(=O)C4[C@@]5(C)CC[C@@H](O)[C@](C)(C(=O)N6CCN(CCO)CC6)C5CC[C@]43C)C2[C@H]1C (stereo partly drawn) [Analog 38]	20	2.73			
CC(=O)O[C@@H]1CC[C@@]2(C)C(CC[C@]3(C)C2C(=O)C=C2C4[C@@H](C)[C@H](C)CC[C@]4(C)CC[C@]23C)[C@@]1(C)C(=O)N1CCN(CCO)CC1 (stereo partly drawn) [Analog 39]			32.11	48.69	
CC(=O)O[C@@H]1CC[C@@]2(C)C(CC[C@]3(C)C2C(=O)C=C2C4[C@@H](C)[C@H](C)CC[C@]4(C)CC[C@]23C)[C@@]1(C)C(=O)n1ccnc1 (stereo partly drawn) [Analog 40]	31	2.7	18.40	40.47	
CC(=O)O[C@@H]1CC[C@@]2(C)C(CC[C@]3(C)C2C(=O)C=C2C4[C@@H](C)[C@H](C)CC[C@]4(C)CC[C@]23C)[C@@]1(C)C(=O)NC1Cc2ccccc2C1 (stereo partly drawn) [Analog 41]	23	3.74			
CC(=O)O[C@@H]1CC[C@@]2(C)C(CC[C@]3(C)C2C(=O)C=C2C4[C@@H](C)[C@H](C)CC[C@]4(C)CC[C@]23C)[C@@]1(C)C(=O)Nc1ccccc1 (stereo partly drawn) [Analog 42]	6	2.33			
CNC(=O)[C@]1(C)C2CC[C@]3(C)C(C(=O)C=C4C5[C@@H](C)[C@H](C)CC[C@]5(C)CC[C@]43C)[C@@]2(C)CC[C@H]1OC(C)=O (stereo partly drawn) [Analog 43]	47.8	12.6	14.57	30.90	
CC(=O)O[C@@H]1CC[C@@]2(C)C(CC[C@]3(C)C2C(=O)C=C2C4[C@@H](C)[C@H](C)CC[C@]4(C)CC[C@]23C)[C@@]1(C)C(=O)Nc1ccccc1Br (stereo partly drawn) [Analog 44]			19.88	30.02	IC50 (MDA-MB-231; Table 4): 28.6 µg/mL (≈ 43 µM); IC50 (MCF-7; Table 4): 24.1 µg/mL (≈ 36.1 µM)
CC(=O)O[C@@H]1CC[C@@]2(C)C(CC[C@]3(C)C2C(=O)C=C2C4[C@@H](C)[C@H](C)CC[C@]4(C)CC[C@]23C)[C@@]1(C)C(=O)N(C)CCO (stereo partly drawn) [Analog 45]					IC50 (MDA-MB-231; Table 4): 12 µg/mL (≈ 21 µM); IC50 (MCF-7; Table 4): 11.9 µg/mL (≈ 20.8 µM)
CC(=O)O[C@@H]1CC[C@@]2(C)C(CC[C@]3(C)C2C(=O)C=C2C4[C@@H](C)[C@H](C)CC[C@]4(C)CC[C@]23C)[C@@]1(C)C(=O)Nc1ccc(O)cc1 (stereo partly drawn) [Analog 46]		39	19.01	30.56	
CC(=O)O[C@@H]1CC[C@@]2(C)C(CC[C@]3(C)C2C(=O)C=C2C4[C@@H](C)[C@H](C)CC[C@]4(C)CC[C@]23C)[C@@]1(C)C(=O)NNc1ccccc1 (stereo partly drawn) [Analog 47]	39	10	35.94	54.10	
CC(=O)O[C@@H]1CC[C@@]2(C)C(CC[C@]3(C)C2C(=O)C=C2C4[C@@H](C)[C@H](C)CC[C@]4(C)CC[C@]23C)[C@@]1(C)C(=O)NCCN(CCO)CCO (stereo partly drawn) [Analog 49]			31.55	47.02	Percentage Inhibition of cell proliferation MDA-MB-231 (MDA-MB-231; Table 4): 21.4 at 10 μg/ml %; Percentage Inhibition of cell proliferation MCF-7 (MCF-7; Table 4): 40.9% at 10 ug/ml
CC(=O)O[C@@H]1CC[C@@]2(C)C(CC[C@]3(C)C2CC=C2C4[C@@H](C)[C@H](C)CC[C@]4(C)CC[C@]23C)[C@@]1(C)C(=O)NCCN (stereo partly drawn) [Analog 51]					IC50 values MDA-MB-231 (MDA-MB-231; Table 4): IC50 at 10.5 μg/ml; IC50 values MCF-7 (MCF-7; Table 4): IC50 at 9.27 μg/ml
CC(=O)O[C@@H]1CC[C@@]2(C)C(CC[C@]3(C)C2CC=C2C4[C@@H](C)[C@H](C)CC[C@]4(C)CC[C@]23C)[C@@]1(C)C(=O)N1CCNCC1 (stereo partly drawn) [Analog 54]			35.69	64.24	
COC(=O)CCC(NC(=O)[C@]1(C)C2CC[C@]3(C)C(C(=O)C=C4C5[C@@H](C)[C@H](C)CC[C@]5(C)CC[C@]43C)[C@@]2(C)CC[C@H]1OC(C)=O)C(=O)OC (stereo partly drawn) [Analog 56]	47	20			
C[C@@H]1CC[C@]2(C)CC[C@]3(C)C(=CC(Cl)=C4[C@@]5(C)CC[C@@H](O)[C@](C)(C(=O)O)C5CC[C@]43C)C2[C@H]1C (stereo partly drawn) [Analog 59]			21.46	39.24	
CC(=O)O[C@@H]1CC[C@]2(C)C3=C(Cl)C=C4C5[C@@H](C)[C@H](C)CC[C@]5(C)CC[C@@]4(C)[C@]3(C)CCC2[C@@]1(C)C(=O)NCCN (stereo partly drawn) [Analog 61]		41			IC50 (MDA-MB-231; Table 4): 8.55 µg/mL (≈ 14.9 µM)
CC(=O)O[C@@H]1CC[C@]2(C)C3=C(Cl)C=C4C5[C@@H](C)[C@H](C)CC[C@]5(C)CC[C@@]4(C)[C@]3(C)CCC2[C@@]1(C)C(=O)NN (stereo partly drawn) [Analog 62]			36.26		
CC(=O)O[C@@H]1CC[C@]2(C)C3=C(Cl)C=C4C5[C@@H](C)[C@H](C)CC[C@]5(C)CC[C@@]4(C)[C@]3(C)CCC2[C@@]1(C)C(=O)N1CCNCC1 (stereo partly drawn) [Analog 63]			36.20	57.86	
